The assay deals with T1, human GLP-1R (Homo sapiens, UniProt P43220, G168S).
T1 construct: expressed in transfected cells
The assay can be described thus: CHO GLP-1R Clone H6 - Assay 1 (HTRF cAMP agonist assay). The conditions noted are these: for EC50: CHO Clone H6, high GLP-1R density, cAMP, geometric mean; for Emax / Assay 1 Emax (%): CHO Clone H6, relative to saturating full agonist GLP-1 7-36 (1 μM), arithmetic mean. Format: cell-based. As for the experimental part:
GLP-1R-mediated agonist activity was determined with a cell-based functional assay utilizing an HTRF (Homogeneous Time-Resolved Fluorescence) cAMP detection kit (cAMP HI Range Assay Kit; CisBio cat #62AM6PEJ) that measures cAMP levels in the cell. The method is a competitive immunoassay between native cAMP produced by the cells and exogenous cAMP labeled with the dye d2, The tracer binding is visualized by a mAb anti-cAMP labeled with Cryptate. The specific signal (i.e. energy transfer) is inversely proportional to the concentration of cAMP in either standard or experimental sample.
The human GLP-1R coding sequence (NCBI Reference Sequence NP_002053.3, including naturally-occurring variant Gly168Ser) was subcloned into pcDNA3 (Invitrogen) and a cell line stably expressing the receptor was isolated (designated Clone H6).
A 1 mL sample of the cell suspension in growth media was counted on a Becton Dickinson ViCell to determine cell viability and cell count per mL. The remaining cell suspension was then adjusted with growth media to deliver 2000 viable cells per well using a Matrix Combi Multidrop reagent dispenser, and the cells were dispensed into a white 384 well tissue culture treated assay plate (Corning 3570). The assay plate was then incubated for 48 hours at 37° C. in a humidified environment in 5% carbon dioxide.
Varying concentrations of each compound to be tested (in DMSO) were diluted in assay buffer (HBSS with Calcium/Magnesium (Lonza/BioWhittaker cat #10-527F)/0.1% BSA (Sigma Aldrich cat #A7409-1L)/20 mM HEPES (Lonza/BioWhittaker cat #17-737E) containing 100 μM 3-isobutyl-1-methylxanthin (IBMX; Sigma cat #15879). The final DMSO concentration is 1%.
After 48 hours, the growth media was removed from the assay plate wells, and the cells were treated with 20 μL of the serially diluted compound in assay buffer for 30 minutes at 37° C. in a humidified environment in 5% carbon dioxide. Following the 30 minute incubation, 10 μL of labeled d2 cAMP and 10 μL of anti-cAMP antibody (both diluted 1:20 in cell lysis buffer; as described in the manufacturer's assay protocol) were added to each well of the assay plate. The plates were then incubated at room temperature and after 60 minutes, changes in the HTRF signal were read with an Envision 2104 multi-label plate reader using excitation of 330 nm and emissions of 615 and 665 nm. Raw data were converted to nM cAMP by interpolation from a cAMP standard curve (as described in the manufacturer's assay protocol) and the percent effect was determined relative to a saturating concentration of the full agonist GLP-17-36 (1 μM) included on each plate. EC50 determinations were made from agonist dose-response curves analyzed with a curve fitting program using a 4-parameter logistic dose response equation.

What is called EC50 is the concentration giving half of the maximal effect. Broadly, the Emax is the greatest response seen or fitted, relative to the assay's reference.

Where a name gives a salt, the structure may show the parent alone. Where only a bound is given, the exact number is not on record here.

T1 sequence (P43220 24-463 G168S): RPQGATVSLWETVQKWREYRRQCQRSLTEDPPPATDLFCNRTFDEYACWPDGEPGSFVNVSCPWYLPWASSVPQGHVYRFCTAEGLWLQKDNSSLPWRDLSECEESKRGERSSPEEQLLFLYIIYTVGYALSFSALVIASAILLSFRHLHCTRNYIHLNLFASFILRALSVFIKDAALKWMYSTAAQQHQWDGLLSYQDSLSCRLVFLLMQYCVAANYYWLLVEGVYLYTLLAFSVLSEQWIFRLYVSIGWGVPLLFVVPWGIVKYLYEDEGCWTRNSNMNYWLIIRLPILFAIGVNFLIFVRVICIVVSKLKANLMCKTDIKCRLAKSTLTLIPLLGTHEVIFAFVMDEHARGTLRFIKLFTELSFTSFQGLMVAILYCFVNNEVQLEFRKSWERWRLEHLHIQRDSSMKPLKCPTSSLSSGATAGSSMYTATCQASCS

For `COCCn1c(C2CC23CCN(c2nc(OCc4ccc(Cl)cc4F)ncc2F)CC3)nc2cnc(C(=O)O)cc21` (single isomer, unassigned) [Example 31, 2-(6-{2-[(4-chloro-2-fluorobenzyl)oxy]-5-fluoropyrimidin-4-yl}-6-azaspiro[2.5]oct-1-yl)-1-(2-methoxyethyl)-1H-imidazo[4,5-c]pyridine-6-carboxylic acid, trifluoroacetate salt, single enantiomer; from P7], a half-maximal effect (EC50) was put at 300 nM and the Emax stood at 65%. Compound `COCCn1c(C2CC23CCN(c2nc(OCc4ccc(Cl)cc4F)ncc2F)CC3)nc2cnc(C(=O)O)cc21` (single isomer, unassigned) [Example 32, 2-(6-{2-[(4-chloro-2-fluorobenzyl)oxy]-5-fluoropyrimidin-4-yl}-6-azaspiro[2.5]oct-1-yl)-1-(2-methoxyethyl)-1H-imidazo[4,5-c]pyridine-6-carboxylic acid, trifluoroacetate salt, single enantiomer; from C23] registered a half-maximal effective concentration (EC50) above 20000 nM.

With `O=C(O)c1ccc2nc(C3CC34CCN(c3nc(OCc5ccc(Cl)cc5F)ncc3F)CC4)n(CCn3cncn3)c2c1` (single isomer, unassigned) [Example 42, 2-(6-{2-[(4-chloro-2-fluorobenzyl)oxy]-5-fluoropyrimidin-4-yl}-6-azaspiro[2.5]oct-1-yl)-1-[2-(1H-1,2,4-triazol-1-yl)ethyl]-1H-benzimidazole-6-carboxylic acid, trifluoroacetate salt, from C23], the EC50 was 3400 nM and the “Assay 1 Emax (%)” value is 89%. As for `COCCn1c(C2CC23CCN(c2cccc(OCc4ccc(Cl)cc4F)n2)CC3)nc2ncc(C(=O)O)cc21` (single isomer, unassigned) [Example 48, 2-(6-{6-[(4-chloro-2-fluorobenzyl)oxy]pyridin-2-yl}-6-azaspiro[2.5]oct-1-yl)-1-(2-methoxyethyl)-1H-imidazo[4,5-b]pyridine-6-carboxylic acid, ENT-1], the response was half-maximal at 2600 nM (EC50) and the maximal response (Emax) was found to be 56%. The like results for `COCCn1c(C2CC23CCN(c2ccnc(OCc4ccc(Cl)cc4F)n2)CC3)nc2ccc(C(=O)O)cc21` (single isomer, unassigned; ent-1) [Example 46, Ammonium 2-(6-{2-[(4-chloro-2-fluorobenzyl)oxy]pyrimidin-4-yl}-6-azaspiro[2.5]oct-1-yl)-1-(2-methoxyethyl)-1H-benzimidazole-6-carboxylate, ENT-1] were, in that order, above 9700 nM and 100%.

Consider `N#Cc1ccc(COc2nc(N3CCC4(CC3)CC4c3nc4ccc(C(=O)O)cc4n3CC3CCO3)c(F)cc2F)c(F)c1` (single isomer, unassigned; ent-2) [Example 58], for which the concentration giving a half-maximal response (EC50) is 43 nM and the “Assay 1 Emax (%)” value amounted to 74%. Compound `Cn1c(CN2CCC(c3nccnc3OCc3ccc(Cl)cc3F)CC2)nc2cnc(C(=O)O)cc21` [Example 29, 2-[(4-{3-[(4-Chloro-2-fluorobenzyl)oxy]pyrazin-2-yl}piperidin-1-yl)methyl]-1-methyl-1H-imidazo[4,5-c]pyridine-6-carboxylic acid, trifluoroacetate salt] showed a half-maximal effective concentration (EC50) of 1800 nM and an Emax of 65%. For `C[C@H]1CN(c2nccnc2OCc2ccc(Cl)cc2F)CCN1Cc1nc2ccc(C(=O)O)nc2n1C` [Example 34, 2-{[(2S)-4-{3-[(4-Chloro-2-fluorobenzyl)oxy]pyrazin-2-yl}-2-methylpiperazin-1-yl]methyl}-3-methyl-3H-imidazo[4,5-b]pyridine-5-carboxylic acid, trifluoroacetate salt], in that order: 1900 nM and 92%. In turn, `Cn1cnc(Cn2c(CN3CCC(c4ccnc(OCc5ccc(Cl)cc5F)n4)CC3)nc3ccc(C(=O)O)cc32)c1` [Example 66, 2-[(4-{2-[(4-chloro-2-fluorobenzyl)oxy]pyrimidin-4-yl}piperidin-1-yl)methyl]-1-[(1-methyl-1H-imidazol-4-yl)methyl]-1H-benzimidazole-6-carboxylic acid] showed an EC50 of 170 nM and an Emax of 110%.

For the origin of these results see patent publication US12331041B2, “GLP-1 receptor agonists and uses thereof” (Pfizer Inc., priority 2018, dated 2025).
